Results published in patent US10183950B2, “Thienopyrimidine inhibitors of atypical protein kinase C” (Cancer Research Technology Limited, priority 2011, dated 2019).

Molecular target: T1, full-length human PKCι (Homo sapiens, UniProt P41743)
T1 construct: Recombinant, full-length human PKCι expressed in Sf21 insect cells is also commercially available; purchased; host or cells: Sf21 insect cells
T1 sequence (P41743 1-596): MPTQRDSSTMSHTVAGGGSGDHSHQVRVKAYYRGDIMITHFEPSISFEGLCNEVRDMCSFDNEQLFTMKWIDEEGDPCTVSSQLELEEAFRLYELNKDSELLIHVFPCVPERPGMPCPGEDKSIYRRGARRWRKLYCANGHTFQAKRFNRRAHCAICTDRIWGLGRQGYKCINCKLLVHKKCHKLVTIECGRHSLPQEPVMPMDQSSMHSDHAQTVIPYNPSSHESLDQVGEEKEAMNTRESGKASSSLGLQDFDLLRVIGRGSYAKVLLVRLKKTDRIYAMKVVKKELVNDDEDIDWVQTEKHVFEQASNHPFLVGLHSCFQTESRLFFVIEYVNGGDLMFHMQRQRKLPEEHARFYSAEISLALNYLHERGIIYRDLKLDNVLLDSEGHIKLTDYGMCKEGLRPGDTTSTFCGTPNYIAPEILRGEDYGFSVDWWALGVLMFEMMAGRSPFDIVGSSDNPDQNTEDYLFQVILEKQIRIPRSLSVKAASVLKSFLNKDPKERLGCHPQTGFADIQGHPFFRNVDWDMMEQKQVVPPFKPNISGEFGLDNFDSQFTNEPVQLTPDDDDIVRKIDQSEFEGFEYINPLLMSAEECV
Experiment: PKCι IC50 IMAP fluorescence polarisation assay, full-length enzyme
Format: biochemical
Conditions: full length PKCi at 15 μM ATP; read-out: IC50 in IMAP assay against full length PKCi

Structure (SMILES) | IC50 [nM]
Cc1cc(-c2csc3c(NC[C@@H](N)Cc4ccccc4)nc(-c4ccncc4)nc23)no1 [compound 568, (S)-N*1*-[7-(5-Methyl-isoxazol-3-yl)-2-pyridin-4-yl-thieno[3,2-d]pyrimidin-4-yl]-3-phenyl-propane-1,2-diamine] | 100 to 1000
Cc1cc(-c2csc3c(NC[C@@H](N)Cc4ccccc4)nc(-c4ccncc4)nc23)n[nH]1 [compound 569, (S)-N*1*-[7-(5-Methyl-1H-pyrazol-3-yl)-2-pyridin-4-yl-thieno[3,2-d]pyrimidin-4-yl]-3-phenyl-propane-1,2-diamine] | < 100
CCc1cc(-c2csc3c(NC[C@@H](N)Cc4ccccc4)nc(-c4ccncc4)nc23)no1 [compound 570, (S)-N*1*-[7-(5-Ethyl-isoxazol-3-yl)-2-pyridin-4-yl-thieno[3,2-d]pyrimidin-4-yl]-3-phenyl-propane-1,2-diamine] | 1000 to 10000
CCc1cc(-c2csc3c(NC[C@@H](N)Cc4ccccc4)nc(-c4ccncc4)nc23)[nH]n1 [compound 571, (S)-N*1*-[7-(5-Ethyl-2H-pyrazol-3-yl)-2-pyridin-4-yl-thieno[3,2-d]pyrimidin-4-yl]-3-phenyl-propane-1,2-diamine] | < 100
N[C@H](CNc1nc(-c2ccncc2)nc2c(-c3ccon3)csc12)Cc1ccccc1 [compound 572, (S)-N*1*-(7-Isoxazol-3-yl-2-pyridin-4-yl-thieno[3,2-d]pyrimidin-4-yl)-3-phenyl-propane-1,2-diamine] | 100 to 1000
c1ccc(Nc2cc(-c3nc(N[C@@H]4CCNC4)c4sccc4n3)ccn2)cc1 [compound 573, [2-(2-Phenylamino-pyridin-4-yl)-thieno[3,2-d]pyrimidin-4-yl]-(R)-pyrrolidin-3-yl-amine] | 1000 to 10000
O=C(Nc1cc(-c2nc(N[C@@H]3CCNC3)c3sccc3n2)ccn1)c1ccco1 [compound 574, Furan-2-carboxylic acid {4-[4-((R)-pyrrolidin-3-ylamino)-thieno[3,2-d]pyrimidin-2-yl]-pyridin-2-yl}-amide] | 1000 to 10000
O=C(Nc1ccccc1)Nc1cc(-c2nc(N[C@@H]3CCNC3)c3sccc3n2)ccn1 [compound 575, 1-Phenyl-3-{4-[4-((R)-pyrrolidin-3-ylamino)-thieno[3,2-d]pyrimidin-2-yl]-pyridin-2-yl}-urea] | 100 to 1000
O=S(=O)(Nc1cc(-c2nc(N[C@@H]3CCNC3)c3sccc3n2)ccn1)c1ccccc1 [compound 576, N-{4-[4-((R)-Pyrrolidin-3-ylamino)-thieno[3,2-d]pyrimidin-2-yl]-pyridin-2-yl}-benzenesulfonamide] | 10000 to 40000
c1cnc(Nc2cc(-c3nc(N[C@@H]4CCNC4)c4sccc4n3)ccn2)cn1 [compound 577, {2-[2-(Pyrazin-2-ylamino)-pyridin-4-yl]-thieno[3,2-d]pyrimidin-4-yl}-(R)-pyrrolidin-3-yl-amine] | 100 to 1000
O=C(Nc1cc(-c2nc(N[C@@H]3CCNC3)c3sccc3n2)ccn1)[C@@H]1CCCO1 [compound 578, (S)-Tetrahydro-furan-2-carboxylic acid {4-[4-((R)-pyrrolidin-3-ylamino)-thieno[3,2-d]pyrimidin-2-yl]-pyridin-2-yl}-amide] | 100 to 1000
Fc1cnc(Nc2ccccc2)cc1-c1nc(N[C@@H]2CCNC2)c2sccc2n1 [compound 579, [2-(5-Fluoro-2-phenylamino-pyridin-4-yl)-thieno[3,2-d]pyrimidin-4-yl]-(R)-pyrrolidin-3-yl-amine] | 1000 to 10000
Fc1cnc(Nc2cnccn2)cc1-c1nc(N[C@@H]2CCNC2)c2sccc2n1 [compound 580, {2-[5-Fluoro-2-(pyrazin-2-ylamino)-pyridin-4-yl]-thieno[3,2-d]pyrimidin-4-yl}-(R)-pyrrolidin-3-yl-amine] | 100 to 1000
CN(C)C(=O)Nc1cc(-c2nc(N[C@@H]3CCNC3)c3sccc3n2)ccn1 [compound 581, 1,1-Dimethyl-3-{4-[4-((R)-pyrrolidin-3-ylamino)-thieno[3,2-d]pyrimidin-2-yl]-pyridin-2-yl}-urea] | 1000 to 10000
CC(C)(C)NC(=O)Nc1cc(-c2nc(N[C@@H]3CCNC3)c3sccc3n2)ccn1 [compound 582, 1-tert-Butyl-3-{4-[4-((R)-pyrrolidin-3-ylamino)-thieno[3,2-d]pyrimidin-2-yl]-pyridin-2-yl}-urea] | 1000 to 10000

Now from value to compound:

IC50 [nM] | Structure (SMILES)
1000 to 10000 | CNC(=O)Nc1cc(-c2nc(N[C@@H]3CCNC3)c3sccc3n2)ccn1 [compound 583, 1-Methyl-3-{4-[4-((R)-pyrrolidin-3-ylamino)-thieno[3,2-d]pyrimidin-2-yl]-pyridin-2-yl}-urea]
1000 to 10000 | O=C(Nc1cc(-c2nc(N[C@@H]3CCNC3)c3sccc3n2)ccn1)N1CCCCC1 [compound 584, Piperidine-1-carboxylic acid {4-[4-((R)-pyrrolidin-3-ylamino)-thieno[3,2-d]pyrimidin-2-yl]-pyridin-2-yl}-amide]
1000 to 10000 | Fc1c(-c2nc(N[C@@H]3CCNC3)c3sccc3n2)ccnc1Nc1cnccn1 [compound 585, {2-[3-Fluoro-2-(pyrazin-2-ylamino)-pyridin-4-yl]-thieno[3,2-d]pyrimidin-4-yl}-(R)-pyrrolidin-3-yl-amine]
100 to 1000 | C[C@@H](Nc1cc(-c2nc(N[C@@H]3CCNC3)c3sccc3n2)ccn1)c1ccccc1 [compound 586, {2-[2-((R)-1-Phenyl-ethylamino)-pyridin-4-yl]-thieno[3,2-d]pyrimidin-4-yl}-(R)-pyrrolidin-3-yl-amine]
100 to 1000 | C[C@H](Nc1cc(-c2nc(N[C@@H]3CCNC3)c3sccc3n2)ccn1)c1ccccc1 [compound 587, {2-[2-((S)-1-Phenyl-ethylamino)-pyridin-4-yl]-thieno[3,2-d]pyrimidin-4-yl}-(R)-pyrrolidin-3-yl-amine]
100 to 1000 | Cc1ccc(Nc2cc(-c3nc(N[C@@H]4CCNC4)c4sccc4n3)ccn2)nn1 [compound 588, {2-[2-(6-Methyl-pyridazin-3-ylamino)-pyridin-4-yl]-thieno[3,2-d]pyrimidin-4-yl}-(R)-pyrrolidin-3-yl-amine]
1000 to 10000 | CC[C@H](Nc1cc(-c2nc(N[C@@H]3CCNC3)c3sccc3n2)ccn1)c1ccccc1 [compound 589, {2-[2-((S)-1-Phenyl-propylamino)-pyridin-4-yl]-thieno[3,2-d]pyrimidin-4-yl}-(R)-pyrrolidin-3-yl-amine]
1000 to 10000 | CC[C@@H](Nc1cc(-c2nc(N[C@@H]3CCNC3)c3sccc3n2)ccn1)c1ccccc1 [compound 590, {2-[2-((R)-1-Phenyl-propylamino)-pyridin-4-yl]-thieno[3,2-d]pyrimidin-4-yl}-(R)-pyrrolidin-3-yl-amine]
1000 to 10000 | C[C@H](O)CNc1cc(-c2nc(N[C@@H]3CCNC3)c3sccc3n2)ccn1 [compound 591, (S)-1-{4-[4-((R)-Pyrrolidin-3-ylamino)-thieno[3,2-d]pyrimidin-2-yl]-pyridin-2-ylamino}-propan-2-ol]
1000 to 10000 | C[C@@H](O)CNc1cc(-c2nc(N[C@@H]3CCNC3)c3sccc3n2)ccn1 [compound 592, (R)-1-{4-[4-((R)-Pyrrolidin-3-ylamino)-thieno[3,2-d]pyrimidin-2-yl]-pyridin-2-ylamino}-propan-2-ol]
1000 to 10000 | O[C@@H](CNc1cc(-c2nc(N[C@@H]3CCNC3)c3sccc3n2)ccn1)c1ccccc1 [compound 593, (R)-1-Phenyl-2-{4-[4-((R)-pyrrolidin-3-ylamino)-thieno[3,2-d]pyrimidin-2-yl]-pyridin-2-ylamino}-ethanol]
